Columns and labels:
γ-secretase = γ-secretase (Homo sapiens, UniProt P49768); experiment: Substrate specificity: FLAG-Aβ secretion by HEK293 cells transfected with FLAG APP C99, anti-FLAG immunoprecipitation/western blot; type: cell-based; details: 0.2 μmol/L; for activity at 0.2 µM: HEK293, 24 h, FLAG APP C99, negative control = 100%, read-out: (i) Aβ secretion rate of HEK293 cells
Description: Of families constituting human Alcadein (hereinafter, referred to as Alc) known as a substrate for γ-secretase to colocalize with APP in brain neurons, an artificial Alcα fragment (hereinafter, referred to as Alcα C150) whose first extracellular cleavage site and γ-secretase cleavage site were determined was used to study the substrate specificity of the γ-secretase inhibitor of the present invention. β-Alcα produced from a first cleavage construct of Alcα cannot be quantified by sELISA used in Aβ measurement. Therefore, proteins with an attached FLAG tag at the N termini of first cleavage constructs of Alcα and of C99 were expressed by cells. FLAG-Aβ-like peptides secreted into a medium were collected by immunoprecipitation using anti-FLAG antibodies and detected by western blotting using the antibodies. A specific method thereof is shown below.
HEK293 cells (ATCC) (1×10^7 cells/10 cm dish) cultured in 6 ml of 10% FCS-containing DMEM (Wako Pure Chemical Industries, Ltd.) were transfected with FLAG APP C99 pcDNA3.1 (the nucleotide sequence of its coding region is shown in SEQ ID NO: 2) (J. Biol. Chem., 2003, 278, 49448-49458 (which was prepared from pcDNA3-APPC99)) or with FLAG Alcα C150 pcDNA3.1 (the nucleotide sequence of its coding region is shown in SEQ ID NO: 3) (J. Biol. Chem., 2004, 279, 24343-24354 (which was the same as pcDNA3AlcαΔE)) using Lipofectamine 2000 (Invitrogen Corp.) according to the protocol included in the reagent. Each inhibitor and a positive control (γ-Secretase Inhibitor IX (DAPT)) (Calbiochem Contact Information) were separately added at a concentration of 0.2 or 2 μmol/L. The same dose of DMSO (Wako Pure Chemical Industries, Ltd.) thereas was added as a negative control. 24 hours later, the culture supernatants were collected, and samples were preliminarily purified using beads (100 μL of 50% (v/v) Protein-G Sepharose (GE Healthcare)). Then, 15 μL of 50% (v/v) anti-FLAG antibody M2 beads (Sigma-Aldrich Corp.) were added thereto, and the samples were incubated at 4° C. for 1 hour. The beads were collected by centrifugation and washed three times with a buffer (10 mM Tris-HCl [pH 8.0], 140 mM NaCl, 0.1% n-octyl glucoside, 0.025% sodium azide), and Aβ and β-Alcα in the medium were collected. The proteins were subjected to SDS-PAGE using a 15% Tris-Tricine gel (Anal Biochem., 1987, 166 (2), 368-379) and then transferred to a membrane. The membrane was boiled for 5 minutes in PBS. Then, anti-FLAG M2 antibodies (5 μg/ml) (Sigma-Aldrich Corp.) were added thereto, and the membrane was incubated, followed by detection using a western blotting detection reagent ECL (GE Healthcare). This signal was quantified using Versa-doc system (Bio-Rad Laboratories, Inc.) to calculate protein secretion rates (the protein secretion rate of the negative control is defined as 100%).

C99 cells = experiment: Cytotoxicity on C99 cells, cell viability by Cell Counting Kit-8; type: cell-based, human; details: 24 h
Description: The cytotoxicity of four test substances (TLVM-5, TLVM-7, TLVM-8, and TLVM-9) on the C99 cells was measured using a method shown below.
In the present test, a medium used for the C99 cells was 500 mL of a Dulbecco's Modified Eagle's Medium (DMEM, Sigma-Aldrich Corp.) supplemented with 55 ml of fetal bovine serum (Biosource), 5.5 ml of MEM non-essential amino acids (Gibco), and 5.5 ml of penicillin/streptomycin (Gibco).
The C99 cells were suspended at a concentration of 0.75×10^5 cells/ml in the medium. The suspension was added at a concentration of 100 μL (0.75×10^4 cells)/well to a 96-well collagen plate (Akita Sumitomo Bakelite Co., Ltd.) and cultured for 2 days. Then, the medium (corresponding to 50 μL/well) in the wells was removed, and a fresh medium was added thereto at a concentration of 30 μL/well. […] Then, the cell viability was measured using Cell Counting Kit-8 (Dojindo Laboratories).

Compound: CSCCC(NC(=O)C(NC(=O)C(CC(C)C)CC(O)C(NC(=O)OC(C)(C)C)C(C)O)C(C)C)C(=O)NCc1ccccc1 [TLVM-5, [5S-(tert-butoxycarbonylamino)-4R,6R-dihydroxy-2R-(2-methylpropyl)heptanoyl]-L-valyl-L-methionine benzylamide]
- (i)/(ii) ratio, Aβ / β-Alcα secretion rates (γ-secretase): 0.29
- cleavage of APP-C99, in words (γ-secretase): specifically inhibited
- activity at 0.2 µM (γ-secretase): 41%
- Cell viability of C99 cells (C99 cells; exposure 0.3 μmol/L): 102%
- Cell viability of C99 cells (C99 cells; exposure 1 μmol/L): 109%
- Cell viability of C99 cells (C99 cells; exposure 3 μmol/L): 112%
- Cell viability of C99 cells (C99 cells; exposure 10 μmol/L): 104%
- Cell viability of C99 cells (C99 cells; exposure 30 μmol/L): 82%
- Cell viability of C99 cells (C99 cells; exposure 100 μmol/L): 46%

Compound: CCCCNC(=O)C(CCSC)NC(=O)C(NC(=O)C(CC(C)C)CC(O)C(NC(=O)OC(C)(C)C)C(C)O)C(C)C [TLVM-7, [5S-(tert-butoxycarbonylamino)-4R,6R-dihydroxy-2R-(2-methylpropyl)heptanoyl]-L-valyl-L-methionine n-butylamide]
- (i)/(ii) ratio, Aβ / β-Alcα secretion rates (γ-secretase): 0.30
- cleavage of APP-C99, in words (γ-secretase): specifically inhibited
- activity at 0.2 µM (γ-secretase): 36%
- Cell viability of C99 cells (C99 cells; exposure 0.3 μmol/L): 92%
- Cell viability of C99 cells (C99 cells; exposure 1 μmol/L): 105%
- Cell viability of C99 cells (C99 cells; exposure 3 μmol/L): 96%
- Cell viability of C99 cells (C99 cells; exposure 10 μmol/L): 102%
- Cell viability of C99 cells (C99 cells; exposure 30 μmol/L): 91%
- Cell viability of C99 cells (C99 cells; exposure 100 μmol/L): 96%

Compound: CSCCC(NC(=O)C(NC(=O)C(CC(C)C)CC(O)C(NC(=O)OC(C)(C)C)C(C)O)C(C)C)C(=O)NC(C)c1ccccc1 [TLVM-8, [5S-(tert-butoxycarbonylamino)-4R,6R-dihydroxy-2R-(2-methylpropyl)heptanoyl]-L-valyl-L-methionine (S)-α-methylbenzylamide]
- (i)/(ii) ratio, Aβ / β-Alcα secretion rates (γ-secretase): 0.27
- cleavage of APP-C99, in words (γ-secretase): specifically inhibited
- activity at 0.2 µM (γ-secretase): 32%
- Cell viability of C99 cells (C99 cells; exposure 0.3 μmol/L): 101%
- Cell viability of C99 cells (C99 cells; exposure 1 μmol/L): 102%
- Cell viability of C99 cells (C99 cells; exposure 3 μmol/L): 101%
- Cell viability of C99 cells (C99 cells; exposure 10 μmol/L): 98%
- Cell viability of C99 cells (C99 cells; exposure 30 μmol/L): 91%
- Cell viability of C99 cells (C99 cells; exposure 100 μmol/L): 8%

Compound: CSCCC(NC(=O)C(NC(=O)C(CC(C)C)CC(O)C(NC(=O)OC(C)(C)C)C(C)O)C(C)C)C(=O)NCc1ccc(F)cc1 [TLVM-9, [5S-(tert-butoxycarbonylamino)-4R,6R-dihydroxy-2R-(2-methylpropyl)heptanoyl]-L-valyl-L-methionine 4-fluorobenzylamide]
- (i)/(ii) ratio, Aβ / β-Alcα secretion rates (γ-secretase): 0.27
- cleavage of APP-C99, in words (γ-secretase): specifically inhibited
- activity at 0.2 µM (γ-secretase): 43%
- Cell viability of C99 cells (C99 cells; exposure 0.3 μmol/L): 104%
- Cell viability of C99 cells (C99 cells; exposure 1 μmol/L): 106%
- Cell viability of C99 cells (C99 cells; exposure 3 μmol/L): 106%
- Cell viability of C99 cells (C99 cells; exposure 10 μmol/L): 105%
- Cell viability of C99 cells (C99 cells; exposure 30 μmol/L): 93%
- Cell viability of C99 cells (C99 cells; exposure 100 μmol/L): 57%
